Results as given in ChEMBL document CHEMBL1157910, “Structural requirement(s) of N-phenylthioureas and benzaldehyde thiosemicarbazones as inhibitors of melanogenesis in melanoma B 16 cells” (Bioorg Med Chem Lett, 2010).

Experiments:
[1] = test system: B16; experiment: Inhibition of melanogenesis in mouse B16 cells at 10 uM; type: functional
[2] = test system: B16; experiment: Inhibition of melanogenesis in mouse B16 cells; type: functional, cell-based
[3] = test system: B16; experiment: Selectivity ratio for inhibition of melanogenesis in mouse B16 cell of compound to N-phenylthiourea; type: functional

Row | Compound | inhibition at 10 µM [1] [%] | IC50 [2] [µM] | Ratio [3]
1 | CCc1ccccc1NC(N)=S | < 10 | > 10 | 
2 | NC(=S)NCc1ccccc1 | < 10 | > 10 | 
3 | NC(=S)NCCCCc1ccccc1 | < 10 | > 10 | 
4 | CC(C)(C)c1ccccc1NC(N)=S | < 10 | > 10 | 
5 | NC(=S)N/N=C/c1ccccc1 [PHENYLTHIOSEMICARBAZONE] | < 10 | > 10 | 
6 | CCc1ccc(/C=N/NC(N)=S)cc1 | 100 | 3.4 | 2
7 | NC(=S)NCCc1ccccc1 | < 10 | > 10 | 
8 | Cc1ccccc1NC(N)=S | < 10 | > 10 | 
9 | Cc1cccc(NC(N)=S)c1 | 78 | 5 | 
10 | NC(=S)Nc1ccccc1CO | < 10 | > 10 | 
11 | CC(C)(C)c1ccc(NC(N)=S)cc1 | 95 | 3.7 | 
12 | NC(=S)Nc1ccc(O)cc1 | 70 | 6.3 | 
13 | CCc1ccc(NC(N)=S)cc1 | 88 | 4.9 | 
14 | Cc1ccc(/C=N/NC(N)=S)cc1 | 64 | 6.8 | 
15 | NC(=S)NCCCc1ccccc1 | < 10 | > 10 | 
16 | Cc1ccc(NC(N)=S)cc1 | 83 | 5.5 | 
17 | NC(=S)Nc1ccc(Cl)cc1 | 84 | 4 | 
18 | NC(=S)Nc1ccccc1 [PHENYLTHIOUREA] | 84 | 5.4 | 
19 | COc1ccc(NC(N)=S)cc1 | 80 | 5.6 | 
20 | COc1ccccc1NC(N)=S | < 10 | > 10 | 
